Reference: patent publication US20220133738A1, “GENOTYPE AND DOSE-DEPENDENT RESPONSE TO AN ASBTI IN PATIENTS WITH BILE SALT EXPORT PUMP DEFICIENCY” (MIRUM PHARMACEUTICALS, INC., priority 2019, published 2022)

System: overweight and obese adults
Assay: Dose-ranging phase 1 clinical study (NCT02475317): fecal bile acid excretion with maralixibat and volixibat
Format: in vivo, human
Settings: for fBA excretion, mean change from baseline: baseline to day 6 and 7

## CCCC[C@]1(CC)CS(=O)(=O)c2ccc(N(C)C)cc2[C@@H](c2cccc(NC(=O)N[C@@H]3O[C@H](COS(=O)(=O)O)[C@@H](O)[C@H](OCc4ccccc4)[C@H]3O)c2)[C@H]1O [volixibat]
10 mg dose (QD), 7 days
  fBA excretion, mean change from baseline: 744 µmol
20 mg dose (QD), 7 days
  fBA excretion, mean change from baseline: 874 µmol
Across tested doses, 7 days
  fBA excretion, dose dependence: increased in a dose-dependent manner
All doses, 7 days
  treatment-emergent adverse events: mild, and none were serious
Baseline to day 7, greatest change at maralixibat 50 mg BID
  Mean serum 7αC4: increased
Day 7 versus baseline
  Mean sBA levels: not elevated
